The structures appear in SMILES notation.

Sequence of Cytochrome P450 2D6 (P10635 whole entry): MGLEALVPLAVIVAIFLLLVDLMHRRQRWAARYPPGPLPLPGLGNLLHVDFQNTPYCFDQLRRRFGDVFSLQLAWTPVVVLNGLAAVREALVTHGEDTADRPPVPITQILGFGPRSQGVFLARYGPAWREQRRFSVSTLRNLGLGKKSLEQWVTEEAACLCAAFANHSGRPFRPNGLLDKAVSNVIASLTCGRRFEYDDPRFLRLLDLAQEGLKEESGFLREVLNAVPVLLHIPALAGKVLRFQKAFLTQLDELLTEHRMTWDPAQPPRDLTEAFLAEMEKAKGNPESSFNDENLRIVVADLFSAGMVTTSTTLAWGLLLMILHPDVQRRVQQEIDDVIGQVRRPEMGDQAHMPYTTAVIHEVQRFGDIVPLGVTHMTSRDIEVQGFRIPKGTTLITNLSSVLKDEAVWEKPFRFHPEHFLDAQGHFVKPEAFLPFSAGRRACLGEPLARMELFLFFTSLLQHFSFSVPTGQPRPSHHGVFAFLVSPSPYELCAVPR

The first assay concerns the target Cytochrome P450 2D6 (Homo sapiens, UniProt P10635). Further: in other assays of this panel Not Active means under 50% inhibition at 10 µM.
Details: not given
Consider `CNC(=O)Oc1ccc2c(c1)[C@]1(C)CCN(C)[C@@H]1N2C` [PHYSOSTIGMINE], for which inhibition was half-maximal at 200 nM (IC50).
Consider `COc1ccc(CN(CCN(C)C)c2ccccn2)cc1` [PYRILAMINE], for which inhibition was half-maximal at 300 nM (IC50).
With `CNCCC=C1c2ccccc2CCc2ccccc21` [NORTRIPTYLINE], inhibition was half-maximal at 1000 nM (IC50).
Still for that read-out and setting: as for `CCc1ccc(C(=O)C(C)CN2CCCCC2)cc1` (stereo not drawn) [EPERISONE], the figure is 4900 nM.

In a further assay the target is 5-hydroxytryptamine receptor 4 (Cavia porcellus, UniProt O70528). The class given is cell membranes, Dunkin-Hartley, Striatum, Membrane. Further: in other assays of this panel Not Active means under 50% inhibition at 10 µM.
Sequence of 5-hydroxytryptamine receptor 4 (O70528 whole entry): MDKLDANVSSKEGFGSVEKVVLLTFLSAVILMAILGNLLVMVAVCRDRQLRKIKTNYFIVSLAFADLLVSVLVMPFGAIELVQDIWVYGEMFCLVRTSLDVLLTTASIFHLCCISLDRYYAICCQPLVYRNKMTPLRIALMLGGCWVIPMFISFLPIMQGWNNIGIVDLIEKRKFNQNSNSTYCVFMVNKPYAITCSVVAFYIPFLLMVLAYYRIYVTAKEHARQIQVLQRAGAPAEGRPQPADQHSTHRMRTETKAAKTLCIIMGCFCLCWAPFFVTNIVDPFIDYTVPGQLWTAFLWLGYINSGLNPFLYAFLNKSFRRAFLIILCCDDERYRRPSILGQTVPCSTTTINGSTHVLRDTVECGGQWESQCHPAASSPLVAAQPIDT
Details: not given
In the case of `CNC(=O)Oc1ccc2c(c1)[C@]1(C)CCN(C)[C@@H]1N2C` [PHYSOSTIGMINE], the 50% inhibitory concentration (IC50) (usually the midpoint of a concentration-inhibition curve) was “Not Active”.
As to `COc1ccc(CN(CCN(C)C)c2ccccn2)cc1` [PYRILAMINE], the IC50 entry was “Not Active”.
The same measure, in the same setting: as for `O=C1OC2(c3ccc(O)cc3Oc3cc(O)ccc32)c2ccccc21` [FLUORESCEIN], the entry is “Not Active”; as for `CNCCC=C1c2ccccc2CCc2ccccc21` [NORTRIPTYLINE], “Not Active”.
Still for that read-out and setting: under `CCc1ccc(C(=O)C(C)CN2CCCCC2)cc1` (stereo not drawn) [EPERISONE] stands “Not Active”.

The target in a further assay is T1, Amine oxidase [flavin-containing] A (Homo sapiens, UniProt P21397).
T1 sequence (P21397 whole entry): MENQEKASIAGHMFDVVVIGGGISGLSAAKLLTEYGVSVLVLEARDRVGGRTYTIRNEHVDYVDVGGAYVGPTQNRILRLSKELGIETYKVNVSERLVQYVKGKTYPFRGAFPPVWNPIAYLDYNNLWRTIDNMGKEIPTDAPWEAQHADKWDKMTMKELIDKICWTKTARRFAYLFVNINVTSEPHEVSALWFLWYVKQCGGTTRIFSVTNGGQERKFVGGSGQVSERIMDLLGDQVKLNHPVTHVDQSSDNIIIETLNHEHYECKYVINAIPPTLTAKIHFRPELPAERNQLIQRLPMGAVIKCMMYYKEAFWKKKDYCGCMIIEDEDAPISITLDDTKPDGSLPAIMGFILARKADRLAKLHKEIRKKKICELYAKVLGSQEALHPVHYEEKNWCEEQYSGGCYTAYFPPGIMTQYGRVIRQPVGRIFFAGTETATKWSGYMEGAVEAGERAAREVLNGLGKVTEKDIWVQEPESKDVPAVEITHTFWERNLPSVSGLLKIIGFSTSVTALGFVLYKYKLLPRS
The assay can be described thus: DRUGMATRIX: Monoamine Oxidase MAO-A enzyme inhibition (substrate: Kynuramine). The note with it: bti-tn-5b1-4; Not Active = under 50% inhibition at 10 µM. Set-up: species or system BTI-TN-5B1-4.
On to `CNC(=O)Oc1ccc2c(c1)[C@]1(C)CCN(C)[C@@H]1N2C` [PHYSOSTIGMINE], for which the IC50 result is on record as “Not Active”.
Still for that read-out and setting: under `COc1ccc(CN(CCN(C)C)c2ccccn2)cc1` [PYRILAMINE] stands “Not Active”; under `O=C1OC2(c3ccc(O)cc3Oc3cc(O)ccc32)c2ccccc21` [FLUORESCEIN], “Not Active”; under `CNCCC=C1c2ccccc2CCc2ccccc21` [NORTRIPTYLINE], “Not Active”.
Take `CCc1ccc(C(=O)C(C)CN2CCCCC2)cc1` (stereo not drawn) [EPERISONE]: the IC50 result is recorded as “Not Active”.

System in a further assay: not listed separately
In words: DRUGMATRIX: Imidazoline I2, Central radioligand binding (ligand: [3H] Idazoxan). It is filed as cell membranes, Rattus norvegicus, Wistar, Cerebral cortex, Membrane. The settings on record: Not Active = under 50% inhibition at 10 µM.
`CNC(=O)Oc1ccc2c(c1)[C@]1(C)CCN(C)[C@@H]1N2C` [PHYSOSTIGMINE]: the half-inhibitory concentration (IC50) entry was “Not Active”; the inhibition constant Ki (in general, the dissociation constant of the complex between target and ligand, obtained from inhibition or displacement) was “Not Active”.
As to `O=C1OC2(c3ccc(O)cc3Oc3cc(O)ccc32)c2ccccc21` [FLUORESCEIN], the half-maximal inhibitory concentration (IC50) entry is on record as “Not Active” and the Ki result is reported as “Not Active”.
As to `CCc1ccc(C(=O)C(C)CN2CCCCC2)cc1` (stereo not drawn) [EPERISONE], the IC50 result is “Not Active” and the Ki entry was “Not Active”.

Staying with this assay, now noted: Not Active = under 50% inhibition at 10 µM; read-out: IC50.
For the compound `COc1ccc(CN(CCN(C)C)c2ccccn2)cc1` [PYRILAMINE], the IC50 came to 3340 nM.
With `CNCCC=C1c2ccccc2CCc2ccccc21` [NORTRIPTYLINE], the IC50 was found to be 3860 nM.

Still in this assay, the particulars now being: Not Active = under 50% inhibition at 10 µM; read-out: Ki.
Take `COc1ccc(CN(CCN(C)C)c2ccccn2)cc1` [PYRILAMINE]: the inhibition constant (Ki) is 2230 nM.
In the case of `CNCCC=C1c2ccccc2CCc2ccccc21` [NORTRIPTYLINE], the Ki is 2570 nM.

The target in a further assay is Voltage-gated inwardly rectifying potassium channel KCNH2 (Homo sapiens, UniProt Q12809). Further: in other assays of this panel Not Active means under 50% inhibition at 10 µM.
Sequence of Voltage-gated inwardly rectifying potassium channel KCNH2 (Q12809 whole entry): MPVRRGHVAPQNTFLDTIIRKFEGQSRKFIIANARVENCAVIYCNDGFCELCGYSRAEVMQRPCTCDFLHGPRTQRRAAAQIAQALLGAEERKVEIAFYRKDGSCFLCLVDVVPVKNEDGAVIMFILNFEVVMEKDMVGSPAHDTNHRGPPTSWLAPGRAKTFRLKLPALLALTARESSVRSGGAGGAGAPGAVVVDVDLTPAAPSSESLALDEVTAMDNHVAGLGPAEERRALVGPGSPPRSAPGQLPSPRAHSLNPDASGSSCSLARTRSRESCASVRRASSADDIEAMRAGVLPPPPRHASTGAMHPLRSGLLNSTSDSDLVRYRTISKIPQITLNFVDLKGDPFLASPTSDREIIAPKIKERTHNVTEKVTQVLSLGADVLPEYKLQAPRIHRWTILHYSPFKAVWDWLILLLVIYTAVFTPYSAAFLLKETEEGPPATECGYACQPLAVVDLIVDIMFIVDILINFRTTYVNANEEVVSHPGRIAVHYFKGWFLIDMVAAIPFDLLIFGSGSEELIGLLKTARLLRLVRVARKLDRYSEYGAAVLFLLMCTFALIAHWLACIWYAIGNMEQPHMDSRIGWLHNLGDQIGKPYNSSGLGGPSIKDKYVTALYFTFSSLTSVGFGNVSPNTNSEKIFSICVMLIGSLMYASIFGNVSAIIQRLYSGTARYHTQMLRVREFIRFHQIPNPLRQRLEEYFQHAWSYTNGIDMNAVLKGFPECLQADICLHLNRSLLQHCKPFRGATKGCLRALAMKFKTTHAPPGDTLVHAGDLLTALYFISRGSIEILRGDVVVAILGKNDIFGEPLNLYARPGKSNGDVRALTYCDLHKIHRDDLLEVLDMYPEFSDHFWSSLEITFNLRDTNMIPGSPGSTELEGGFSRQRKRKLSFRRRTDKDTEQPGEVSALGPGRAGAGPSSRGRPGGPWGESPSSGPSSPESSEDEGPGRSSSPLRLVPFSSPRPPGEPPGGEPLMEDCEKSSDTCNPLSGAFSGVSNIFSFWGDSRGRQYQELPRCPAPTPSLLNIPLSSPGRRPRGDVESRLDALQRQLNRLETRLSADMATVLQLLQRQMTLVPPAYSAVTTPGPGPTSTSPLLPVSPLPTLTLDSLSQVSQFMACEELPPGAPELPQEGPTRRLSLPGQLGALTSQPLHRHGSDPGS
Details: not given
`COc1ccc(CN(CCN(C)C)c2ccccn2)cc1` [PYRILAMINE]: the half-inhibitory concentration (IC50) stood at 12600 nM and the affinity corresponds to a Ki of 10300 nM.

System in the next assay: not listed separately
In words: DRUGMATRIX: Tumor Necrosis Factor (TNF), Non-Selective radioligand binding (ligand: [125I] TNF-alpha). It is filed as cell membranes, Membrane. The note with it: u-937; Not Active = under 50% inhibition at 10 µM.
Turning to `CNC(=O)Oc1ccc2c(c1)[C@]1(C)CCN(C)[C@@H]1N2C` [PHYSOSTIGMINE], the half-inhibitory concentration (IC50) entry was “Not Active” and the Ki entry is “Not Active”.
As to `COc1ccc(CN(CCN(C)C)c2ccccn2)cc1` [PYRILAMINE], the IC50 entry is given as “Not Active” and the inhibition constant Ki entry was “Not Active”.
Take `O=C1OC2(c3ccc(O)cc3Oc3cc(O)ccc32)c2ccccc21` [FLUORESCEIN]: the IC50 entry is given as “Not Active” and the inhibitory constant (Ki) entry is “Not Active”.
As to `CNCCC=C1c2ccccc2CCc2ccccc21` [NORTRIPTYLINE], the concentration for half-maximal inhibition (IC50) result is “Not Active” and the Ki result is on record as “Not Active”.
As to `CCc1ccc(C(=O)C(C)CN2CCCCC2)cc1` (stereo not drawn) [EPERISONE], the concentration for half-maximal inhibition (IC50) entry is on record as “Not Active” and the Ki entry was “Not Active”.

Another assay deals with Cytochrome P450 2C19 (Homo sapiens, UniProt P33261).
Sequence of Cytochrome P450 2C19 (P33261 whole entry): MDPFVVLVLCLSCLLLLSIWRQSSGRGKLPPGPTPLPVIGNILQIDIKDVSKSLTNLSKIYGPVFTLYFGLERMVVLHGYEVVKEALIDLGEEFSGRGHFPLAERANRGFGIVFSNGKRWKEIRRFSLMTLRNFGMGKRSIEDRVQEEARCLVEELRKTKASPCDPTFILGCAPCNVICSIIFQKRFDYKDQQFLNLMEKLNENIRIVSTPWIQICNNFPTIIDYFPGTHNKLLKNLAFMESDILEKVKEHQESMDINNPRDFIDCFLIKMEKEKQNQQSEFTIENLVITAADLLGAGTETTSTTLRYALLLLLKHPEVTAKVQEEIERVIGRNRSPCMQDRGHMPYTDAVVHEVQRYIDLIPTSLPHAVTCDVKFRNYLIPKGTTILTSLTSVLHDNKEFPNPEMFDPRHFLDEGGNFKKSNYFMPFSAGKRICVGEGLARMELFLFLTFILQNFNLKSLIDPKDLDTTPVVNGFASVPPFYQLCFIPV
Details: not given
For `O=C1OC2(c3ccc(O)cc3Oc3cc(O)ccc32)c2ccccc21` [FLUORESCEIN], the midpoint of inhibition, the IC50, lay at 907 nM.
Still for that read-out and setting: as for `CNCCC=C1c2ccccc2CCc2ccccc21` [NORTRIPTYLINE], the figure is 3000 nM.

Values taken from ChEMBL document CHEMBL1909046, “DrugMatrix in vitro pharmacology data”.
